Data taken from patent US20060275503A1, “Combination treatment with strontium for the prophylaxis and/or treatment of cartilage and/or bone conditions” (Nordic Bone A/S, priority 2003, published 2006).

Legend:
[1] = values quoted in scientific literature or reference material such as the Beilstein compendium; cited from earlier work
[2] = Experimental: The solubility of the organic carboxylic acid strontium salts, were measured in water. The solubility of these salts was also measured as a function of temperature. This was performed by incubating the saturated solutions of the salts in temperature controlled incubators.
The buffered solutions were immersed into a bath of water temperature controlled at either room temperature (22-24° C.), at 30° C. or at 40° C. […] In order to eliminate any reminiscent strontium chloride influence on the determination of solubility, all the precipitate was collected at the bottom of the test tubes and the solutions above the precipitate were carefully removed and substituted by fresh solutions. […] From these solutions, the dissolved proportions of the strontium salt were collected in volumes of 1 mL at the specified temperature. The solutions were diluted to 50 mL before analysis by Flame Atomic Absorption Spectrometry (F-AAS).
Two methods were used for quantification of strontium in solutions: Flame Atomic Absorption Spectrometry (F-AAS), and the more sensitive inductively-coupled-plasma-mass spectrometry (ICP-MS).
The solubilities were investigated as described above, and strontium content in the saturated solutions determined as described here below.
Some of the very soluble strontium salts were further diluted before analysis by F-AAS. The measurements were performed by using a Perkin-Elmer 2100 equipped with a hydrogen lamp for correction of the background signal. Strontium was measured at a slit with of 0.2 nm, the wavelength was 460.8 nm operated at an energy of 58 and a current of 8 mA.
This analysis was performed using a Perkin Elmer Elan 5000 system equipped with a cross-flow nebulizer. The power was set at 1000 W and the Argon-gas flow was 12 L/min and 0.8 L/min of the torch and plasma gas, respectively.

[3] = target: T1, calcium-sensing receptor (CaR) (Homo sapiens, UniProt P41180); conditions: cited from earlier work
T1 sequence (P41180 20-1078): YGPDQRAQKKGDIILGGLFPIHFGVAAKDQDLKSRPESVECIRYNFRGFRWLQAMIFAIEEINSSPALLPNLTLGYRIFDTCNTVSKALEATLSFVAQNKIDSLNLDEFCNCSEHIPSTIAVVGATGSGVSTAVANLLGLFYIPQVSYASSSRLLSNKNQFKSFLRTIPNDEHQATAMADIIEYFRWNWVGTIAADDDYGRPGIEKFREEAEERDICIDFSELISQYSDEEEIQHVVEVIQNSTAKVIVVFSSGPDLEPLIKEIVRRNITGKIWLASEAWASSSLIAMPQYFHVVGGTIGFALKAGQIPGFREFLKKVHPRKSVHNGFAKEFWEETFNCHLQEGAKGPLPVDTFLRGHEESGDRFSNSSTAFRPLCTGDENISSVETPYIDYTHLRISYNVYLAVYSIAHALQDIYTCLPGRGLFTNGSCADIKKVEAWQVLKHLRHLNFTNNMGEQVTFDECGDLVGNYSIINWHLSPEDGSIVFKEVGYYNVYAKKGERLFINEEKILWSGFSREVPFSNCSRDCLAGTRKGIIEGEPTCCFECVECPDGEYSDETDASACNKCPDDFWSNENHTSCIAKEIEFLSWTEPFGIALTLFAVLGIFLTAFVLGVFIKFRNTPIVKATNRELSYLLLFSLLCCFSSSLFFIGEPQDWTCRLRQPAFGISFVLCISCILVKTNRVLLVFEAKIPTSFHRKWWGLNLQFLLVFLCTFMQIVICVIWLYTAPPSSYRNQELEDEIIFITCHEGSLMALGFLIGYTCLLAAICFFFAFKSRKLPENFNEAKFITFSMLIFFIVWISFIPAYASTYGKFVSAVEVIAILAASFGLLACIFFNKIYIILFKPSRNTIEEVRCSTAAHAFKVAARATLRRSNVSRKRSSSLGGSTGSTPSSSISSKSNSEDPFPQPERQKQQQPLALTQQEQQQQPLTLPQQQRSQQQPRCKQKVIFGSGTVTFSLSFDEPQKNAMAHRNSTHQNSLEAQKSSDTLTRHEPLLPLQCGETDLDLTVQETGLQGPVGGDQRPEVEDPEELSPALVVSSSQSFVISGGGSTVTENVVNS

Structure (SMILES): [Cl-].[Cl-].[Sr+2] [SrCl2, strontium chloride]
- Solubility, Expected value 18° C. [1]: 538 mg/mL
- Solubility, Measured g/L ([2]; commercially available strontium salts, in water at room temperature (22-24)): 240 g/L

Structure (SMILES): O=C([O-])/C=C\C(=O)[O-].[Sr+2] [Maleate, strontium maleate]
- solubility in ammonium carbonate buffered solution of pH 7.5 compared with pure water ([2]; pH 7.5): decreased solubility

Structure (SMILES): N#Cc1c(N(CC(=O)[O-])CC(=O)[O-])sc(C(=O)[O-])c1CC(=O)[O-].[Sr+2].[Sr+2] [Ranelate, distrontium salt of 2-[N,N-di(carboxymethyl)amino]-3-cyano-4-carboxymethylthiophene-5-carboxylic acid]
- SOLUBILITY AT 40° C. (mg/L) In water [2]: 1450 mg/L
- SOLUBILITY AT ROOM TEMPERATURE (22-24° C. mg/L) In water [2]: 760 mg/L
- SOLUBILITY AT 40° C. (mg/L) pH 7.5 ([2]; pH 7.5): 1970 mg/L
- SOLUBILITY AT ROOM TEMPERATURE (22-24° C. mg/L) pH 7.5 ([2]; pH 7.5): 890 mg/L

Structure (SMILES): [Sr+2] [strontium]
- activity at the calcium-sensing receptor (CaR) [3]: full agonist
